# Data from patent US7638518B2, “Substituted pyrazole kinase inhibitors” (Janssen Pharmaceutica, priority 2006, dated 2009).
# Assays:
# A375 malignant melanoma = assay: Cell proliferation inhibition assay (14C-thymidine incorporation), A375; type: cell-based; conditions: Homo sapiens, A-375, A375 cells
# Source text: (§1) The ability of a test compound to inhibit unregulated cell proliferation may be determined by measuring incorporation of ^14C-labelled thymidine into newly synthesized DNA within cell lines derived from carcinomas originating from several tissues. Accordingly, the anti-proliferative effect of a compound on cells with a variety of phenotypes may be determined.
# (§2) Carcinoma cell lines include those such as HeLa cervical adenocarcinoma (American Type Culture Collection (ATCC), Virginia, Cat. #CCL-2), A375 malignant melanoma (ATCC CRL-1619), and HCT-116 colon carcinoma (CCL-247).
# (§3) The carcinoma cells are trypsinized and counted. The cells (3000-8000 count) are added to each well of a 96-well CytoStar tissue culture treated scintillating microplate (Amersham #RPNQ0160) in complete medium (100 μL) and the plate is then incubated in complete medium for 24 hrs at 37° C. in an inert atmosphere containing 5% CO2. Test compound (1 μL) in 100% DMSO is added to the plate test-wells with DMSO only added to control-wells. The plate is incubated in complete medium for a second 24 hr period at 37° C. in an atmosphere containing 5% CO2.
# (§4) An aliquot of a solution of Methyl ^14C-thymidine (56 mC/mmol) (NEN #NEC568 or Amersham #CFA532) and complete medium (20 uL to provide 0.2 μCi/well) is then added to each well and the plate is incubated for a third 24 hr period at 37° C. in an atmosphere containing 5% CO2. The plate contents are then discarded, the plate is washed twice with PBS (200 μL) and then PBS (200 μL) is added to each well. The plate is sealed and the degree of methyl ^14C-thymidine incorporation is quantified on a Packard Top Count.
# (§5) A maximum and minimum signal for the assay was determined on each plate. The percent inhibition of a test compound was calculated according to the formula: […]
# (§6) For a series of test concentrations, the IC50 was derived by graphing percent inhibition against the log of the concentrations tested for a given compound with results shown in Table 3.
# VEGFR2 = target: T1, VEGFR2 (Rattus norvegicus, UniProt O08775); assay: VEGFR2 kinase screening assay (33P-ATP FlashPlate); type: biochemical; conditions: 10 μM ATP, rat VEGF-R2 kinase domain, 1 hr at 30° C.
# T1 construct: polyhistidine (N)
# T1 sequence (O08775 786-1343): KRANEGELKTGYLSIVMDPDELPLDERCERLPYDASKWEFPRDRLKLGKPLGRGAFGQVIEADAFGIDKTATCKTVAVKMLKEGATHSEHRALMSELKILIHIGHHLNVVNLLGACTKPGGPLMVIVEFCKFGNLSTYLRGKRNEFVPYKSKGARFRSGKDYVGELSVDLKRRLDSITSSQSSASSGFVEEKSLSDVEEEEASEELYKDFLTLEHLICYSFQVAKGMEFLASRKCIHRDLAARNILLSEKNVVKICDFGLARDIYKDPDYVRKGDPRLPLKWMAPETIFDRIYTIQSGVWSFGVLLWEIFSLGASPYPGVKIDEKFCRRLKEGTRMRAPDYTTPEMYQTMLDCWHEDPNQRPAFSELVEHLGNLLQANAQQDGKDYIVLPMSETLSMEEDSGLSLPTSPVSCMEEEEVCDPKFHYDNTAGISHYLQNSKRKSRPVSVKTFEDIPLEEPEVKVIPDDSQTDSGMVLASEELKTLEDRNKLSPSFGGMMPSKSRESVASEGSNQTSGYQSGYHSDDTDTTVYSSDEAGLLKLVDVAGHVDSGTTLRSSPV
# HCT-116 colon carcinoma = assay: Cell proliferation inhibition assay (14C-thymidine incorporation), HCT-116; type: cell-based; conditions: Homo sapiens, HCT-116 cells
# Source text: as §1, §2, §3, §4, §5, §6
# Aurora-A = target: T2, Aurora-A (Mus musculus, UniProt P97477); assay: Aurora-A kinase screening assay (33P-ATP FlashPlate); type: biochemical; conditions: 10 μM ATP, murine full length Aurora-A, 1 hr at 30° C.
# T2 construct: followed by the full length protein encoding the murine Aurora-A; polyhistidine (N); made in house; host or cells: sf9 insect cells
# T2 sequence (P97477 1-395): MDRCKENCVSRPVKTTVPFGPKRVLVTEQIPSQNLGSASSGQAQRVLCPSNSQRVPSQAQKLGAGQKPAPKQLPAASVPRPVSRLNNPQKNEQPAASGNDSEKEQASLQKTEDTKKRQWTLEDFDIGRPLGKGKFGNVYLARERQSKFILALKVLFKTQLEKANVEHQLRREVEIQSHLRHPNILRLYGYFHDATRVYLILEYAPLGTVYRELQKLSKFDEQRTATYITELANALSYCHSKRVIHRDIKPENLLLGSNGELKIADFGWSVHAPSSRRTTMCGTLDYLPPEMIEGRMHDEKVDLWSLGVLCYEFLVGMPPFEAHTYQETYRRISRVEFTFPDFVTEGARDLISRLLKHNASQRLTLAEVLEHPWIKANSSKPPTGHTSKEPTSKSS
# CDK1 = target: T3, CDK1 (Homo sapiens, UniProt P06493); assay: CDK-1 kinase screening assay (33P-ATP FlashPlate); type: biochemical; conditions: 10 μM ATP, biotinylated histone-H1 peptide substrate, 1 hr at 30° C.
# T3 construct: purchased New England Biolabs, Beverly, Mass; 6020; host or cells: insect cells
# T3 sequence (P06493 whole entry): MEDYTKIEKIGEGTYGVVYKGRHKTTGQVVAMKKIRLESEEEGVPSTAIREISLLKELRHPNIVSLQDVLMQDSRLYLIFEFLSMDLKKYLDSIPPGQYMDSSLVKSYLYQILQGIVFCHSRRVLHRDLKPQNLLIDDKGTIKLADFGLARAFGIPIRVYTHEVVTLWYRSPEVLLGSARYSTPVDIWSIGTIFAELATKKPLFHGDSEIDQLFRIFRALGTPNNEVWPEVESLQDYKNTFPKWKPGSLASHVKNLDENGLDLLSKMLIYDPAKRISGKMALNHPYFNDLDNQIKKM
# T3 sequence (P14635 whole entry partner): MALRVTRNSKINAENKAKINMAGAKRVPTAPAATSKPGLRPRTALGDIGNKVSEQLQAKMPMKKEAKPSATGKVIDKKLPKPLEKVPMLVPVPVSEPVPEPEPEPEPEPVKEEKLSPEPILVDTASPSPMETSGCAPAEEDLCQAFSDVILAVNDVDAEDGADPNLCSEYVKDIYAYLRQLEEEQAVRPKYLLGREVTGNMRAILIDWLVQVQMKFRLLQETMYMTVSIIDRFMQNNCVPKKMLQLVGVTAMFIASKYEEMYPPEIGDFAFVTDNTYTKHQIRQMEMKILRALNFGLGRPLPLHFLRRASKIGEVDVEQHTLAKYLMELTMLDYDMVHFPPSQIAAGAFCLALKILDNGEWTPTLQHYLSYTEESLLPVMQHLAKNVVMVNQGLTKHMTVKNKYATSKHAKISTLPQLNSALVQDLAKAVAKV
# Description: (§7) A kinase reaction mixture was prepared containing 50 mM Tris-HCl pH=8, 10 mM MgCl2, 0.1 mM […], 1 mM DTT, 10 μM ATP, 0.025 μM biotinylated histone-H1 peptide substrate and 0.2 μCuries per well ^33P-γ-ATP (2000-3000 Ci/mmol). 70 μL of the kinase reaction mixture was dispensed into the well of a streptavidin coated FlashPlate™ (Cat. # SMP103, NEN, Boston, Mass.).
# (§8) Test compound stock in 100% DMSO (1 μL) was added to the wells resulting in a final concentration of 1% DMSO in the reaction with a 100 μL final reaction volume. Each enzyme was diluted in 50 mM Tris-HCl pH=8.0, 0.1% BSA and 30 μL was added to each well to initiate the reaction. The reaction was incubated for one hour at 30° C. At the end of the 1 hr incubation, the reaction was terminated by aspirating the mixture from the plate and washing the wells twice with PBS containing 100 mM EDTA. The biotinylated peptide substrate became immobilized on the Flashplate™ and the incorporation of ^33P-γ-ATP was measured by reading the plate on a scintillation counter. Inhibition of the enzymatic activity was measured by observing a reduced amount of ^33P-γ-ATP incorporated into the immobilized peptide.
# The CDK1 enzyme was isolated from insect cells expressing both the human CDK1 catalytic subunit (Accession number NM_001786) and its positive regulatory subunit cyclin B (New England Biolabs, Beverly, Mass.; Cat. # 6020). The assay used 30 ng of the N-terminal biotinylated peptide biotin-[…]-amide (Cyclin dependent kinase 1) per well.
# (§9) Aurora-A is a fusion protein containing a polyhistidine tag at the N terminus followed by the full length protein encoding the murine Aurora-A (Accession number GB BC014711) expressed and purified from sf9 insect cells. The assay used 400 ng of the N-terminal biotinylated peptide biotin-[…]-amide (Aurora-A) per well. A maximum and minimum signal for the assay was determined on each plate. The percent inhibition of a test compound was calculated according to the formula: […]
# (§10) For a series of test concentrations, the IC50 was derived by graphing percent inhibition against the log of the concentrations tested for a given compound with results shown in Table 1.
# HER2 = target: T4, HER2 (Homo sapiens, UniProt P04626); assay: HER2 kinase screening assay (33P-ATP FlashPlate); type: biochemical; conditions: 10 μM ATP, biotin-poly(GT) 4:1 substrate, 1 hr at 30° C.
# T4 construct: GST (Glutathione-S-Transferase) (N); HIS6 (N); Thrombin cleavage site (N); purchased Proqinase, Freiburg, Germany
# T4 sequence (P04626 679-1255): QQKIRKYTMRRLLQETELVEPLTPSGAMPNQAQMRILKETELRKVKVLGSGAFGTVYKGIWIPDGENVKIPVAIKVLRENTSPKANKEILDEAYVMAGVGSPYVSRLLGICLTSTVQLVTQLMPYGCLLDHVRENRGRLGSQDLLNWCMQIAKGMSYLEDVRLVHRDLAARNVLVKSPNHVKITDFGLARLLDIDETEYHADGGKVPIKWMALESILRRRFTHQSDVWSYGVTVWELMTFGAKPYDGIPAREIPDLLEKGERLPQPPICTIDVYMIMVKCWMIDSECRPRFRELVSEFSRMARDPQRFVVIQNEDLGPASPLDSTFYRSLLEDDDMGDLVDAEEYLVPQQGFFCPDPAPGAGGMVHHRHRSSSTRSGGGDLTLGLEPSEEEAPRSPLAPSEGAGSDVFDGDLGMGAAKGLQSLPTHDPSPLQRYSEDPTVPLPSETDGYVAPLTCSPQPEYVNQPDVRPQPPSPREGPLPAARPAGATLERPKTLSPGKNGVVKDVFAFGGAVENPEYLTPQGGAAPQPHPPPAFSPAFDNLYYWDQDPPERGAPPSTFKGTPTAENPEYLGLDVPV
# Description: as §7, §8
# The HER2 construct consisted of a fusion of GST (Glutathione-S-Transferase), HIS6 Thrombin and the nucleotides encoding amino acids 679 to 1255 of HER-2 (Accession number M11730) (Proqinase, Freiburg, Germany). The assay used 200 ng of the N-terminal biotinylated peptide biotin-poly(GT) 4:1 (HER2) per well.
# as §9, §10
# [1] = tested on: HeLa cervical adenocarcinoma; assay: Cell proliferation inhibition assay (14C-thymidine incorporation), HeLa; type: cell-based; conditions: Homo sapiens, HeLa cells
# Source text: as §1, §2, §3, §4, §5, §6
Structure (SMILES),IC50 (A375 malignant melanoma) [nM],IC50 (VEGFR2) [nM],IC50 (HCT-116 colon carcinoma) [nM],IC50 (Aurora-A) [nM],IC50 (CDK1) [nM],IC50 (HER2) [nM],IC50 [1] [nM]
"CCNCc1cncc(C=Cc2c[nH]nc2-c2nc3ccc(OC)cc3[nH]2)c1 [Cpd 1, ethyl-(5-{2-[3-(6-methoxy-1H-benzoimidazol-2-yl)-1H-pyrazol-4-yl]-vinyl}-pyridin-3-ylmethyl)-amine]",553,821,187,588,4.59,3030,615
"COc1ccc2nc(-c3n[nH]cc3C=Cc3cccnc3)[nH]c2c1 [Cpd 2, 6-methoxy-2-[4-(2-pyridin-3-yl-vinyl)-1H-pyrazol-3-yl]-1H-benzoimidazole]",2500,967,2160,513,32.8,,1800
"COc1ccc2nc(-c3n[nH]cc3C=Cc3ccc(N)nc3)[nH]c2c1 [Cpd 3, 5-{2-[3-(6-Methoxy-1H-benzoimidazol-2-yl)-1H-pyrazol-4-yl]-vinyl}-pyridin-2-ylamine]",1030,636,1040,625,23,6840,992
"COc1ccc2nc(-c3n[nH]cc3C=Cc3cnccc3C)[nH]c2c1 [Cpd 5, 6-methoxy-2-{4-[2-(4-methyl-pyridin-3-yl)-vinyl]-1H-pyrazol-3-yl}-1H-benzoimidazole]",4300,,3190,549,157,,2760
"COc1ccc2nc(-c3n[nH]cc3C=Cc3cncc4ccccc34)[nH]c2c1 [Cpd 6, 4-{2-[3-(6-methoxy-1H-benzoimidazol-2-yl)-1H-pyrazol-4-yl]-vinyl}-isoquinoline]",2960,613,2680,,148,,2820
"COc1ccc2nc(-c3n[nH]cc3C=Cc3cncc(C#N)c3)[nH]c2c1 [Cpd 7, 5-{2-[3-(6-methoxy-1H-benzoimidazol-2-yl)-1H-pyrazol-4-yl]-vinyl}-nicotinonitrile]",,1730,,4190,> 1000,,
"CN1CCN(c2ccc3nc(-c4n[nH]cc4C=Cc4cccnc4)[nH]c3c2)CC1 [Cpd 8, 6-(4-methyl-piperazin-1-yl)-2-[4-(2-pyridin-3-yl-vinyl)-1H-pyrazol-3-yl]-1H-benzoimidazole]",864,286,194,> 10000,29.1,9320,464
"COC(=O)c1cncc(C=Cc2c[nH]nc2-c2nc3ccc(OC)cc3[nH]2)c1 [Cpd 9, 5-{2-[3-(6-methoxy-1H-benzoimidazol-2-yl)-1H-pyrazol-4-yl]-vinyl}-nicotinic acid methyl ester]",3100,1280,3130,> 100000,886,,4370
"COc1cncc(C=Cc2c[nH]nc2-c2nc3ccc(OC)cc3[nH]2)c1 [Cpd 10, 6-methoxy-2-{4-[2-(5-methoxy-pyridin-3-yl)-vinyl]-1H-pyrazol-3-yl}-1H-benzoimidazole]",913,653,748,399,46.6,12000,886
"CCNC(=O)c1cncc(C=Cc2c[nH]nc2-c2nc3ccc(OC)cc3[nH]2)c1 [Cpd 11, N-ethyl-5-{2-[3-(6-methoxy-1H-benzoimidazol-2-yl)-1H-pyrazol-4-yl]-vinyl}-nicotinamide]",3620,1350,2460,> 100000,111,36600,3700
